Source: patent US8034940B2, “Modulators of glucocorticoid receptor, AP-1, and/or NF-κB activity and use thereof” (Bristol-Myers Squibb Company, priority 2006, dated 2011)

Tested on: AP-1 induced transcriptional activity
Assay: Cellular Transrepressional Assay (AP-1 luciferase reporter, PMA-activated A549 cells)
Assay type: cell-based
Details: for AP-1 Max % inh (Cellular Transrepression Assay) / Emax: maximum inhibition; for Emax: A549, 7 h, read-out: AP-1 Max % inh (Cellular Transrepression Assay)
Protocol: Cellular Transrepressional Assay
To measure the ability of test molecules to inhibit AP-1 induced transcriptional activity we utilized an A549 cell which was stably transfected with a plasmid containing 7× AP-1 DNA binding sites (pAP-1-Luc plasmid, Stratagene Co. La Jolla, Calif.) followed by the gene for luciferase. Cells were activated with 10 ng/ml of […] (PMA) plus or minus test molecules for 7 hours. After 7 hours a luciferase reagent was added to measure luciferase enzymatic activity in the cell. After a 10 minute incubation of luciferase reagent with cells, luminescence was measured in a TopCount luminescence counter. Repression of AP-1 activity was calculated as the percentage decrease in the signal induced by PMA alone. Test molecules were analyzed in the concentration range from 0.1 nM to 40 μM. EC50s were determined by using standard curve fitting methods such as Excel fit (Microsoft Co.).

[1] = Homo sapiens, Cellular Transrepression Assay
[2] = Homo sapiens, A549, Cellular Transrepression Assay

SMILES	EC50 (Cellular Transrepression Assay)	EC50 [2]	AP-1 Max % inh (Cellular Transrepression Assay) (Cellular Transrepression Assay)	Emax [1]
CC(C)(O)c1ccc(-c2ccc3c(n2)Oc2ccccc2[C@@H]3C(C)(C)C(=O)NC#N)cc1 [Example 399]		333 nM		69.3%
CC(C)Oc1ccc(-c2ccc3c(c2)Oc2ccccc2C3C(C)(C)C(=O)Nc2nncs2)nc1 (centres unmarked) [Example 105]		12.2 nM		30.5%
CC(C)(C(=O)Nc1nc(-c2ccc(F)c3ccccc23)cs1)C1c2ccccc2-c2ccccc21 [Example 21]				60.8%
CC(C)(C(=O)Nc1nncs1)C1c2ccccc2Oc2cc(OC(=O)NCc3ccco3)ccc21 (centres unmarked) [Example 393]	53.4 nM		43.80%	
CC(C)(C(=O)Nc1nc(-c2ccc(F)c3ccccc23)cs1)C1c2ccccc2Oc2ncccc21 (centres unmarked) [Example 63]				75.8%
COc1ccc(CNC(=O)Oc2ccc3c(c2)Oc2ccccc2C3C(C)(C)C(=O)Nc2nncs2)cc1 (centres unmarked) [Example 391]	52 nM		44.08%	
CCCC/C=C/c1ccc2c(n1)Oc1ccccc1[C@@H]2C(C)(C)C(=O)Nc1nncs1 [Example 436]		95.7 nM		44%
COc1ccc2c(c1)Oc1ccccc1C2C(C)(C)C(=O)Nc1nc(-c2cccc3ccccc23)cs1 (centres unmarked) [Example 52]		213 nM		70.8%
CC(C)(C(=O)Nc1nnc(C#N)s1)[C@H]1c2ccccc2Oc2nc(-c3ccc(C(=O)N4CCCC4)c(F)c3)ccc21 [Example 435]		292 nM		27.9%
CCNC(=O)c1nnc(NC(=O)C(C)(C)[C@H]2c3ccccc3Oc3nc(-c4ccc(C(=O)N5CCCC5)c(F)c4)ccc32)s1 [Example 421]		49.8 nM		42.6%
COc1ccc(Cc2csc(NC(=O)C(C)(C)[C@H]3c4ccccc4Oc4cc(OC)ccc43)n2)cc1 [Example 57]		11.5 nM		74.8%
CC(C)(C(=O)Nc1nncs1)C1c2ccccc2Oc2cc(OC(=O)NCCc3cccs3)ccc21 (centres unmarked) [Example 376]	34.4 nM		45.09%	
CC(C)(C(=O)Nc1nncs1)C1c2ccccc2Oc2cc(-c3nn[nH]n3)ccc21 (centres unmarked) [Example 126]		49.7 nM		30.8%
COc1ccc(CNc2ccc3c(n2)Oc2ccccc2C3C(C)(C)C(=O)Nc2nncs2)cc1 (centres unmarked) [Example 128]		92 nM		66.3%
Cc1nnc(NC(=O)C(C)(C)C2c3ccccc3Oc3cc(O)ccc32)s1 (centres unmarked) [Example 100]		256 nM		71.7%
CC(C)(C(=O)Nc1nnc(CO)s1)[C@H]1c2ccccc2Oc2nc(-c3ccc(C(=O)N4CCCC4)c(F)c3)ccc21 [Example 423]		82 nM		30.4%
CC(C)(C(=O)Nc1nc(-c2ccc(F)c3ccccc23)cs1)C1c2ccccc2Sc2ccccc21 [Example 8]		546 nM		69%
Cc1nnc(NC(=O)C(C)(C)C2c3ccc(-c4ccc(C(=O)N(C)C)c(F)c4)nc3Oc3c(F)cccc32)s1 (centres unmarked) [Example 165]		9.8 nM		53.4%
CN(C)C(=O)c1cnc(-c2ccc3c(c2)Oc2ccccc2C3C(C)(C)C(=O)Nc2nncs2)nc1 (centres unmarked) [Example 109]		182 nM		60.2%
COc1ccc2c(n1)Oc1ccccc1C2C(C)(C)C(=O)Nc1nc(Cc2ccc(-c3ccncc3)cc2)cs1 (centres unmarked) [Example 79]		9.42 nM		62.3%
CC(C)(C(=O)Nc1nncs1)C1c2ccccc2Oc2cc(OC(=O)NC3CCCCC3)ccc21 (centres unmarked) [Example 385]	96.5 nM		28.99%	
CC(C)Oc1ccc(-c2ccc3c(n2)Oc2ccccc2[C@@H]3C(C)(C)C(=O)Nc2nccs2)cc1F [Example 246]		325 nM		81.8%
CSc1cnc(NC(=O)C(C)(C)[C@H]2c3ccccc3Oc3nc(-c4ccc(C(=O)N5CCCC5)c(F)c4)ccc32)s1 [Example 424]		150 nM		59.6%
CC(C)(C(=O)Nc1nc(-c2ccc(F)c3ccccc23)cs1)C1c2ccccc2Oc2nc(Cl)ccc21 (centres unmarked) [Example 73]		735 nM		60.6%
CCC(C)NC(=O)Oc1ccc2c(c1)Oc1ccccc1C2C(C)(C)C(=O)Nc1nncs1 (centres unmarked) [Example 383]	46.3 nM		41.78%	
Cc1ccc(-c2csc(NC(=O)CC3c4ccccc4Sc4ccccc43)n2)c2ccccc12 [Example 27]				15%
CN(C)c1nnc(NC(=O)C(C)(C)[C@H]2c3ccccc3Oc3nc(-c4ccc(C(=O)N5CCCC5)c(F)c4)ccc32)s1 [Example 429]		67.3 nM		41.8%

Now from value to compound, other results behind:

EC50 (Cellular Transrepression Assay)	EC50 [2]	SMILES	AP-1 Max % inh (Cellular Transrepression Assay) (Cellular Transrepression Assay)	Emax [1]
41.3 nM		CC(C)Oc1ccc(-c2ccc3c(n2)Oc2ccccc2C3C(C)(C)C(=O)Nc2nncs2)cc1F (centres unmarked) [Example 211]	49.63%	
	127 nM	CN(C)C(=O)c1ccc(-c2ccc3c(n2)Oc2ccccc2C3C(C)(C)C(=O)NC2=NCCS2)cc1 (centres unmarked) [Example 442]		50.1%
	60.9 nM	CC(C)(C(=O)Nc1nncs1)[C@H]1c2ccccc2Oc2nc(-c3ccc(C(=O)N4CCCC4C#N)cc3)ccc21 (some centres unmarked) [Example 316]		35.9%
23.6 nM		CCCN(C)C(=O)c1ccc(-c2ccc3c(n2)Oc2ccccc2C3C(C)(C)C(=O)Nc2nncs2)cc1 (centres unmarked) [Example 254]	41.80%	
	786 nM	CC(C)(C(=O)Nc1nncs1)[C@H]1c2ccccc2Oc2nc(-c3ccc(C(=O)N4CCS(=O)(=O)CC4)cc3)ccc21 [Example 310]		52.9%
	47 nM	CN(C)C(=O)c1ccc(-c2ccc3c(n2)Oc2ccccc2C3C2(C(=O)Nc3nncs3)CCC2)cc1 (centres unmarked) [Example 479]		44.4%
	41 nM	CC(C)(C(=O)Nc1nnc(CF)s1)[C@H]1c2ccccc2Oc2nc(-c3ccc(C(=O)N4CCCC4)cc3)ccc21 [Example 433]		46.2%
	82.1 nM	CC(C)(C(=O)Nc1nnc(C(N)=O)s1)[C@H]1c2ccccc2Oc2nc(-c3ccc(C(=O)N4CCCC4)c(F)c3)ccc21 [Example 418]		29.1%
18.4 nM		CCCN(C)C(=O)c1ccc(-c2ccc3c(n2)Oc2ccccc2[C@@H]3C(C)(C)C(=O)Nc2nncs2)cc1F [Example 343]	29.68%	
	300 nM	CNC(=O)c1ccc(-c2ccc3c(n2)Oc2ccccc2[C@@H]3C(C)(C)C(=O)Nc2nncs2)cc1 [Example 348]		34.4%
405 nM		CCNS(=O)(=O)c1ccc(-c2ccc3c(n2)Oc2ccccc2C3C(C)(C)C(=O)Nc2nncs2)cc1 (centres unmarked) [Example 234]	27.08%	
124 nM		CCN(C)C(=O)c1ccc(-c2ccc3c(n2)Oc2ccccc2[C@@H]3C(C)(C)C(=O)Nc2nncs2)cc1Cl [Example 345]	54.25%	
11.2 nM		CC(C)(C(=O)Nc1nncs1)[C@H]1c2ccccc2Oc2nc(-c3ccc(C(=O)N4CCCCC4)c(F)c3)ccc21 [Example 249]	42.38%	
	16.6 nM	CC(C)(C(=O)Nc1ncns1)[C@H]1c2ccccc2Oc2nc(-c3ccc(C(=O)N4CCOCC4)cc3)ccc21 [Example 457]		51.9%
5.58 nM		CN(C)C(=O)c1ccc(-c2ccc3c(n2)Oc2c(F)cccc2C3C(C)(C)C(=O)Nc2nncs2)cc1 (racemic) [Example 164]	57.26%	
92.7 nM		COc1ccc(-c2ccc3c(n2)Oc2ccccc2C3C(C)(C)C(=O)Nc2nncs2)cc1 (centres unmarked) [Example 169]	48.82%	
	182 nM	CC(C)(C(=O)Nc1nncs1)C1c2ccccc2Oc2cc(-c3ccc(C(=O)N4CCOCC4)cc3)ncc21 (centres unmarked) [Example 492]		28.4%
	413 nM	CN(C)C(=O)c1ccc(-c2ccc3c(n2)Oc2ccccc2[C@@H]3C(C)(C)C(=O)Nc2nnc(C(F)(F)F)s2)cc1 [Example 446]		27.7%
22.6 nM		CC(C)(C(=O)Nc1nncs1)C1c2ccccc2Oc2nc(-c3ccc(O)cc3)ccc21 (centres unmarked) [Example 191]	37.51%	
	19.3 nM	CN(C)C(=O)c1ccc(-c2ccc3c(n2)Oc2ccccc2C3C2(C(=O)Nc3nncs3)CCCC2)cc1 (centres unmarked) [Example 484]		29.8%
41.5 nM		COC1CCN(C(=O)c2ccc(-c3ccc4c(n3)Oc3ccccc3[C@@H]4C(C)(C)C(=O)Nc3nncs3)cc2)CC1 [Example 309]	34.95%	
	22.5 nM	CC(C)(O)c1ccc(-c2ccc3c(n2)Oc2ccccc2[C@@H]3C(C)(C)C(=O)Nc2nncs2)cc1 [Example 404]		70.6%
	15.8 nM	O=C(c1ccc(-c2ccc3c(n2)Oc2ccccc2C3C2(C(=O)Nc3nncs3)CCC2)cc1)N1CCOCC1 (centres unmarked) [Example 486]		50.3%
	92.1 nM	CC(C)(C(=O)Nc1nncs1)[C@H]1c2ccccc2Oc2nc(N3CCCC3)ccc21 [Example 141]		44.2%
	601 nM	COC(=O)Cc1ccc(-c2ccc3c(n2)Oc2ccccc2[C@@H]3C(C)(C)C(=O)Nc2nncs2)cc1 [Example 238]		62.3%
	72.2 nM	CCN(CC)C(=O)c1ccc(-c2ccc3c(n2)Oc2ccccc2[C@@H]3C(C)(C)C(=O)Nc2nncs2)cc1F [Example 259]		23.3%
115 nM		CC(C)(C(=O)Nc1nncs1)[C@H]1c2ccccc2Oc2nc(-c3ccc(C(=O)N4CCCCC4)c(Cl)c3)ccc21 [Example 264]	33.74%	
583 nM		CC(C)N(C)C(=O)c1ccc(-c2ccc3c(n2)Oc2ccccc2[C@@H]3C(C)(C)C(=O)Nc2nncs2)cc1F [Example 329]	40.81%	
